The test system of experiment [1] is C3 fragment deposition on artificial PNH cells. Briefly: C3 fragment deposition on artificial PNH cells (flow cytometry). It is filed as cell-based. The note with it: 32% acidified C5-depleted normal human serum; read-out: IC50, inhibition of C3 fragment deposition on artificial PNH cells. As to the method:
C5-depleted normal human serum (C5-Dpl NHS), gelatin veronal buffer (GVB) without Ca^++ and Mg^++ (GVB^0), 100 mM MgCl2+100 mM EGTA (MgEGTA) were obtained from Complement Technology Inc. (Tyler, TX). GVB^0·MgEGTA was prepared by mixing GVB^0 and 100 mM MgEGTA in a 9:1 ratio. FITC-conjugated anti-C3c antibody (cat #ab4212) and Alexa Fluor® 647-conjugated anti human CD59 antibody (cat #:ab187769) were purchased from Abcam (Cambridge, MA). […] Ferrone, and F. Mercuriali, The Action of Two Sulfhydryl Compounds on Normal Human Red Cells. Relationship to Red Cells of Paroxysmal Nocturnal Hemoglobinuria. Blood, 1965. 25: p. 502-10). After AET treatment, artificial PNH erythrocytes were centrifuged, supernatant was aspirated and cells were thoroughly washed with phosphate buffered saline (PBS) 3 times followed by washing with GVB^0 buffer ([…]) for additional 3 times. […] C3 fragment deposition on the surface of the erythrocytes was assessed by flow cytometry with BD Accuri C6 cytometer (BD Biosciences, San Jose, CA). […] IC50 values from each experiment were determined by curve-fitting of experimental data (the % C3 fragment-positive cells at increasing concentrations of inhibitor) to the four-parameter sigmoidal dose-response equation using non-linear regression analysis (Prism Software, GraphPad, La Jolla, CA).
Background: A flow cytometer gives signals particle by particle.

Experiment [2] has as its system PNH Type III red blood cells. Briefly: Phase 2 study in PNH subjects: PNH red blood cell (Type III) percentage. It counts as in vivo, human. The settings on record: Compound 1 100 mg TID + IV eculizumab. As to the method: The starting dose of compound 1 is based upon group assignment. The Group 1 dose is 100mg three times daily (TID). The Group 2 dose is 150 mg TID. The Group 3 dose is 200 mg TID. The Group 4 dose will receive the optimal dose determined from Groups 1-3.
All doses are taken approximately 15-30 minutes after completion of a meal or snack.
This will be followed by a long-term extension phase.
2 subjects in the first dose level of 100 mg TID have been completed and data collected through 4 weeks. Data collected include lactate dehydrogenase (LDH) levels, hemoglobin levels, reticulocytes, PNH red blood cells (Type III) percentage, C3 Fragment Deposition percentage, and bilirubin levels and their changes from baseline.
Measuring the percentage of PNH Type III red blood cells is a pharmacodynamic marker that is measured by flow cytometry, which provides information on cell size, shape, and percentage of a type of cell. This assay determines whether CD55 and CD59 are missing from the surface of red blood cells. These proteins help protect normal cells from hemolysis. PNH Type III cells are extremely sensitive to the complement system and hemolysis. PNH Type III cell percentage is measured from plasma drawn on Day 1, Week 2, and Week 4 (FIGS. 16A & 16B and Table 18).

Regarding `CC(=O)c1nn(CC(=O)N2C[C@H](F)C[C@H]2C(=O)Nc2cccc(Br)n2)c2ccc(-c3cnc(C)nc3)cc12` [Compound 1, (2S,4R)-1-(2-(3-acetyl-5-(2-methylpyrimidin-5-yl)-1H-indazol-1-yl)acetyl)-N-(6-bromopyridin-2-yl)-4-fluoropyrrolidine-2-carboxamide], the IC50 in experiment [1] came out at 27 nM. The “PNH RBC (TYPE III) Observed” value in experiment [2] (subject 003-001, DAY 1 (baseline)) amounted to 41%; in experiment [2] (subject 003-001, WEEK 2), 62%; in experiment [2] (subject 003-001, WEEK 4), 70%; in experiment [2] (subject 003-002, DAY 1 (baseline)), 50%; in experiment [2] (subject 003-002, WEEK 2) it was 60%; in experiment [2] (subject 003-002, WEEK 4), 68%. Also, the “PNH RBC (TYPE III) CFB (change from baseline)” value in experiment [2] (subject 003-001, DAY 1) came to 0%; in experiment [2] (subject 003-001, WEEK 2), 21%; in experiment [2] (subject 003-001, WEEK 4), 29%; in experiment [2] (subject 003-002, DAY 1), 0%; in experiment [2] (subject 003-002, WEEK 2), 10%; in experiment [2] (subject 003-002, WEEK 4), 18%.

Broadly, the IC50 is the midpoint of a concentration-inhibition curve.

Values taken from patent US20250032490A1, “THERAPEUTIC REGIMENS FOR TREATMENT OF PAROXYSMAL NOCTURNAL HEMOGLOBINURIA” (Achillion Pharmaceuticals, Inc., priority 2017, published 2025).
